pKd: −log10 of the molar value. One block for each compound: values may come before it.
Key:
[1] = tested on: experimental animals; conditions: lethal dose of argothroban after clinical testing; cited from earlier work
[2] = cited from earlier work
[3] = biological target: T1, thrombin (Homo sapiens, UniProt P00734); conditions: literature, PDB complex; cited from earlier work
[4] = biological target: T1, thrombin; assay: Effect of test compounds on thrombin activity: hydrolysis rate of chromogenic (Chromozim TH) or fluorogenic (BOC-Ala-Pro-Arg-AMC) substrate; format: biochemical
Text: The effect of the synthesized substances on thrombin activity was studied by measuring the hydrolysis rate of specific low molecular weight substrates with thrombin in an aqueous buffering solution in the absence and presence of these compounds. One of these substrates was chromogenic substrate Chromozim TH (CTH): N-(p-Tosyl)-Gly-Pro-Arg-pNA [Sonder S A, Fenton J W 2nd. Thrombin Specificity with Tripeptide Chromogenic Substrates: Comparison of Human and Bovine Thrombins with and without Fibrinogen Clotting Activities. Clin. Chem., 1986, 32(6):934-937]. Another substrate that was used in a number of experiments was fluorogenic substrate BOC-Ala-Pro-Arg-AMC (S), wherein BOC is butoxycarbonyl residue, and AMC is 7-amino-4-methylcoumaryl [Kawabata S, Miura T, Morita T, Kato H, Fujikawa K, Ivanaga S, Takada K, Kimura T, Sakakibara S. Highly Sensitive peptide-4-methylcoumaryl-7-amide Substrates for Blood-Clotting Proteases and Trypsin. Eur. J. Biochem., 1988, 172(1):17-25].
The holes of a common 96-hole board were filled with a buffer containing 140 mM of NaCl, 20 mM of HEPES, and 0.1% polyethylene glycol (Mw=6,000), at pH=8.0. […] When a chromogenic substrate was used, accumulation of the colored reaction product—para-nitroaniline—was followed on a spectrophotometric Molecular Devices board reader (Thermomax, U.S.), measuring the increase in optical density on the 405 nm wavelength. […] The reaction kinetics was registered on a fluorometric Titertek Fluoroskan board reader (LabSystem, Finland).
The initial reaction rate was measured as the tangent of the kinetic curve inclination angle on a straight section (first 10 to 15 minutes of registration). Reaction rate without an inhibitor was a ssumed to be 100%. The mean arithmetic value of two independent measurements was used as the end result.

[5] = concentration of compound 0.5 mcM
[6] = concentration of compound 1 mcM
[7] = concentration of compound 2.5 mcM
[8] = concentration of compound 5 mcM

SMILES: CC1CNc2c(cccc2S(=O)(=O)N[C@@H](CCCNC(=N)N)C(=O)N2CC[C@@H](C)C[C@@H]2C(=O)O)C1 (stereo partly drawn) [Argatroban]
LD50 [1]: 475 mg/kg
T1/2 in plasma [2]: 36 min

SMILES: N=c1ccc2cc3ccc(N)cc3[nH]c-2c1 [Proflavin]
pKd [3]: ~5.00

SMILES: Cc1cc(OCCCSC(=N)N)cc(OS(=O)(=O)c2ccccc2Cl)c1 [HC-026s-IOC, 3-(3-methyl-5-(2-chlorobenzenesulfonyloxy)phenoxy)propyl-isothiouronium iodide]
inhibition at 0.005 µM ([4]; concentration of compound 5 nM): 47%
inhibition at 0.0125 µM ([4]; concentration of compound 12.5 nM): 40%
inhibition at 0.025 µM ([4]; concentration of compound 25 nM): 64%
inhibition at 0.125 µM ([4]; concentration of compound 125 nM): 68%

SMILES: Cc1cc(OCCC[n+]2ccc(N)cc2)cc(OS(=O)(=O)c2ccccc2F)c1.[I-] [HC_029s_IOC]
inhibition at 0.05 µM ([4]; concentration of compound 50 nM): 8%
inhibition at 0.1 µM ([4]; concentration of compound 100 nM): 14%
inhibition at 0.25 µM ([4]; concentration of compound 250 nM): 16%
Hydrolysis rate inhibition, % [4, 5]: 25%
Hydrolysis rate inhibition, % [4, 6]: 54%
Hydrolysis rate inhibition, % [4, 7]: 75%
Hydrolysis rate inhibition, % [4, 8]: 81%

Hydrolysis rate inhibition, % ([4]; concentration of compound 0.1 mcM): 15%
Hydrolysis rate inhibition, % ([4]; concentration of compound 0.25 mcM): 34%
Hydrolysis rate inhibition, % [4, 5]: 46%
Hydrolysis rate inhibition, % [4, 6]: 44%
Hydrolysis rate inhibition, % [4, 7]: 63%
Hydrolysis rate inhibition, % [4, 8]: 78%
Hydrolysis rate inhibition, % ([4]; concentration of compound 25 mcM): 95%
Hydrolysis rate inhibition, % ([4]; concentration of compound 50 mcM): 95%
Hydrolysis rate inhibition, % ([4]; concentration of compound 250 mcM): 100%
Hydrolysis rate inhibition, % ([4]; concentration of compound 500 mcM): 100%
SMILES: CNc1ccc(S(=O)(=O)N(C)c2ccccc2)cc1NC(=O)CC[n+]1ccc(N)cc1.[Cl-] [HC_028s_IOC]
